Drawing on ChEMBL document CHEMBL1147221, “Illudin S, the sole antiviral compound in mature fruiting bodies of Omphalotus illudens” (J Nat Prod, 2003), this text covers Activity for one molecule.

Activity calls are given as the source filed them. The calls are words filed in the database; no cut-off is given here.

The test system of data set [1] is Human alphaherpesvirus 1. Nature of the data set: Antiviral activity against HSV1 infected in african green monkey CV1 cells at 10 ug/disk by filter disk method. The data set is classed as functional, organism-based. The note with it: CV-1.
Data set [2] in a line: Cytotoxicity against african green monkey CV1 cells at 10 ug/disk by neutral red staining. The note with it: chlorocebus aethiops, cv-1. The data set is classed as cell-based.
Data set [3] has as its system Human alphaherpesvirus 1. Nature of the data set: Antiviral activity against HSV1 infected in african green monkey CV1 cells at 5 ug/disk by filter disk method. The note with it: CV-1. The class given is functional, organism-based.
Data set [4] is described as follows: Cytotoxicity against african green monkey CV1 cells at 5 ug/disk by neutral red staining. The class given is cell-based. The note with it: chlorocebus aethiops, cv-1.
The subject of data set [5] is Human alphaherpesvirus 1. Nature of the data set: Antiviral activity against HSV1 infected in african green monkey CV1 cells at 2.5 ug/disk by filter disk method. The data set is classed as functional, organism-based. Particulars: CV-1.
Data set [6] is described as follows: Cytotoxicity against african green monkey CV1 cells at 2.5 ug/disk by neutral red staining. The class given is cell-based. The note with it: chlorocebus aethiops, cv-1.
In data set [7] the test system is Human alphaherpesvirus 1. Put plainly: Antiviral activity against HSV1 infected in african green monkey CV1 cells at 1 ug/disk by filter disk method. The note with it: CV-1. The class given is functional, organism-based.
Data set [8] in a line: Cytotoxicity against african green monkey CV1 cells at 1 ug/disk by neutral red staining. The class given is cell-based. The note with it: chlorocebus aethiops, cv-1.
In data set [9] the test system is Human alphaherpesvirus 1. Put plainly: Antiviral activity against HSV1 infected in african green monkey CV1 cells at 0.5 ug/disk by filter disk method. The class given is functional, organism-based. The note with it: CV-1.
Data set [10] is described as follows: Cytotoxicity against african green monkey CV1 cells at 0.5 ug/disk by neutral red staining. The class given is cell-based. The note with it: chlorocebus aethiops, cv-1.
Data set [11] concerns Human alphaherpesvirus 1. Put plainly: Antiviral activity against HSV1 infected in african green monkey CV1 cells at 0.25 ug/disk by filter disk method. The data set is classed as functional, organism-based. Particulars: CV-1.
Data set [12] in a line: Cytotoxicity against african green monkey CV1 cells at 0.25 ug/disk by neutral red staining. The class given is cell-based. Particulars: chlorocebus aethiops, cv-1.
Data set [13] relates to Human alphaherpesvirus 1. Put plainly: Antiviral activity against HSV1 infected in african green monkey CV1 cells at 0.15 ug/disk by filter disk method. The class given is functional, organism-based. The note with it: CV-1.
Data set [14] is described as follows: Cytotoxicity against african green monkey CV1 cells at 0.15 ug/disk by neutral red staining. The class given is cell-based. The note with it: chlorocebus aethiops, cv-1.
For data set [15], the system named is Human alphaherpesvirus 1. Nature of the data set: Antiviral activity against HSV1 infected in african green monkey CV1 cells at 0.1 ug/disk by filter disk method. The class given is functional, organism-based. Particulars: CV-1.
The nature of data set [16]: Cytotoxicity against african green monkey CV1 cells at 0.1 ug/disk by neutral red staining. Particulars: chlorocebus aethiops, cv-1. The class given is cell-based.
In data set [17] the test system is Human alphaherpesvirus 1. Nature of the data set: Antiviral activity against HSV1 infected in african green monkey CV1 cells at 0.05 ug/disk by filter disk method. The class given is functional, organism-based. The note with it: CV-1.
Data set [18] in a line: Cytotoxicity against african green monkey CV1 cells at 0.05 ug/disk by neutral red staining. The data set is classed as cell-based. Particulars: chlorocebus aethiops, cv-1.
Data set [19] is described as follows: Cytotoxicity against african green monkey CV1 cells at 0.025 ug/disk by neutral red staining. The data set is classed as cell-based. Particulars: chlorocebus aethiops, cv-1.
A short description of data set [20]: Cytotoxicity against african green monkey CV1 cells at 0.015 ug/disk by neutral red staining. The data set is classed as cell-based. Particulars: chlorocebus aethiops, cv-1.
Data set [21] relates to Human alphaherpesvirus 1. Nature of the data set: Antiviral activity against HSV1 infected in african green monkey CV1 cells at 0.010 ug/disk by filter disk method. The class given is functional, organism-based. Particulars: CV-1.
A short description of data set [22]: Cytotoxicity against african green monkey CV1 cells at 0.010 ug/disk by neutral red staining. The class given is cell-based. The note with it: chlorocebus aethiops, cv-1.
Data set [23] has as its system Human alphaherpesvirus 1. Put plainly: Antiviral activity against HSV1 infected in african green monkey CV1 cells at 0.005 ug/disk by filter disk method. The class given is functional, organism-based. Particulars: CV-1.
Data set [24] in a line: Cytotoxicity against african green monkey CV1 cells at 0.005 ug/disk by neutral red staining. Particulars: chlorocebus aethiops, cv-1. The data set is classed as cell-based.

In the case of `CC1=C2C(=C[C@@](C)(CO)[C@@H]2O)C(=O)[C@](C)(O)C12CC2` [ILLUDIN], the outcome in [1], in data set [3], in [5], in data set [7], in data set [9] and in data set [11] was inactive. The result in data set [21] and in data set [23] was inactive. Moreover, the Activity entry in data set [2], in [4], in data set [6], in data set [8], in data set [10] and in data set [12] was “Toxic” each time. Further, the Activity entry in [14], in [16], in data set [18], in [19], in data set [20] and in data set [22] was “Non-toxic” throughout. Also, the Activity entry in data set [24] is “Non-toxic”. The result in data set [13], in data set [15] and in [17] was Active.
